Article PMC8308625, “Preclinical Studies in Anti-Trypanosomatidae Drug Development” (Pharmaceuticals, 2021)
Like-named read-outs stand apart in the source and are kept apart here.

Columns and labels:
L. infantum amastigote = test: Single dose study in the amastigote form of L. infantum; type: cell-based; conditions: Leishmania infantum, single dose 10 µM
[1] = cited from earlier work
fibroblasts (NCTC929) = test: Cytotoxicity in fibroblasts; type: cell-based; conditions: NCTC-929, read-out: EC50 ± SD Fibroblasts
Description: Table 5 Cytotoxicity and selectivity index of reference drugs and selected molecules. | column: EC50 ± SD (µM) ^a / Fibroblasts

T. brucei = test: Growth inhibition of T. brucei bloodstream form trypomastigotes (resazurin); type: cell-based, Trypanosoma brucei brucei; conditions: for EC50: Trypanosoma brucei, read-out: EC50 ± SD T. brucei
Protocol: Compounds were dissolved in dimethylsulfoxide (DMSO).

T. cruzi [2] = conditions: cited from earlier work
[3] = parameters: method as in PMID 24749923, PMID 26492824, PMID 25512408; conditions: ref [13],[14],[15]; cited from earlier work
[4] = system: J774.1 murine macrophages; test: Nonspecific cytotoxicity in murine macrophages (MTT); conditions: Mus musculus, J774.1, read-out: EC50 ± SD MΦ
Protocol: Cell viability was then assessed using the 3-(4,5-dimethylthiazol-2-yl)-2,5-diphenyltetrazolium bromide (MTT) colorimetric assay [1]. […] All assays were performed in triplicate [35].

L. amazonensis [5] = test: Murine model of cutaneous Leishmaniasis; conditions: BALB/c mice, oral
Protocol: For the in vivo model of cutaneous disease, 1 × 10^7 amastigote parasites of L. amazonensis PH8 were inoculated in the upper part of the left paw of the mice. […] The mice were sacrificed 30 days post-infection. The antiparasitic effect was evaluated by two methods: the weekly evolution of the diameter of the infected paw throughout the experiment (Figure 2C) and the quantification of the parasite load in the infected area at the end of the experiment (Figure 2A).
Golden hamsters (Mesocritus auratus) were used to maintain L. amazonensis infections with the parasites passage every 6 to 8 weeks. BALB/c mice (female and male) supplied by the IFFA-CREDO, Lyon, France, and bred at the Instituto de Investigaciones en Ciencias de la Salud, Asuncion, Paraguay, were inoculated in the right hind footpad with 2 × 10^6 L. amazonensis amastigotes in 100 µL PBS obtained from donor hamsters. Disease progression was monitored by the measurement of lesion diameters for 7 to 12 weeks. […] Two days before the administration of the drug, the mice were randomly divided into groups of eight. […] The animals were euthanized two weeks after cessation of treatments to assess parasitological loads in the infected footpad. […] Following incubation at 27 °C for seven days, cultures were examined with an inverted microscope (Olympus, Tokyo, Japan) at a magnification of ×400. The number of parasites per gram in the lesion was calculated by the following equation: Parasite burden = geometric mean of the number of parasites in each duplicate/(number of microscope field counted × weight of lesion × (25,000) hemocytometer correction factor) [37]. […] Comparisons of parasite suppression in the infected footpads of the untreated and drug-treated groups were performed by Student’s t-test. One-way ANOVA (as a non-parametric statistical test) was also used on ranks.

[6] = cited from earlier work; for Ames Test (mutagenicity): ref [13],[14],[15]
human red blood cells = test: Red Blood Cell Lysis Assay; type: cell-based; conditions: 50 µM
Protocol: To assess a compound’s hemolytic activity the Red Blood Cell Lysis Assay (national blood bank) was performed. A compound-containing erythrocyte (2% (w/v)) suspension prepared in phosphate-buffered saline pH 7.4 was incubated for 24 h at 37 °C and the amount of hemoglobin released into the supernatant determined spectrophotometrically using a Varioskan TM Flash Multimode Reader (Thermo ScientificTM, MA, USA) set to a wavelength of 405 nm. The % hemolysis was determined using the follows equation: % released hemoglobin = [(A1 − A0)/(A1water)] × 100, where A1 and A0 represent the absorbance at 405 nm of the test sample at 0 and 24 h, and A1water the absorbance at 405 nm of water at 24 h. The experiments were performed by quintuplicate. […]

[7] = system: L. infantum veterinary isolate (MCAN_UY_2015_gPL8); test: Growth inhibition of L. infantum veterinary isolate promastigotes (resazurin); conditions: for Selectivity Index MΦ/Lin–Vet: EC50 mammalian cell line/EC50 L. infantum veterinary isolate; for EC50: Leishmania infantum, read-out: EC50 ± SD Lin–Vet
[8] = system: L. infantum reference strain (MHOM/BR/2002/LPC-RPV); test: Growth inhibition of L. infantum reference strain promastigotes (resazurin); conditions: for Selectivity Index MΦ/Lin–Ref: EC50 mammalian cell line/EC50 L. infantum reference strain; for EC50: Leishmania infantum, read-out: EC50 ± SD Lin–Ref
T. cruzi [9] = system: T. cruzi; parameters: method as in PMID 31652542; conditions: mice, ref [16], cited from earlier work
[10] = mice, up and down test, cited from earlier work
L. amazonensis [11] = test: Growth inhibition of L. amazonensis promastigotes (resazurin); conditions: for Selectivity Index MΦ/L. amaz: EC50 mammalian cell line/EC50 L. amazonensis; for EC50: Leishmania amazonensis, read-out: EC50 ± SD L. amaz
Cruzipain = conditions: mechanism of action; ref [13],[14],[15]; cited from earlier work
human macrophages = test: Cytotoxicity in human macrophages; type: cell-based; conditions: 50 µM
Protocol: Differentiation of THP-1 to produce macrophage-like cells was carried out using phorbol 12-myristate-13-acetate (Sigma-Aldrich, Deisenhofen, Germany).
All assays were performed in triplicate.

[12] = Acute oral toxicity (up and down test); conditions: mice
L. braziliensis = conditions: read-out: EC50 ± SD L. brazils, cited from earlier work
[13] = target: T1, Triosephosphate isomerase from T. brucei (TbTIM) (Trypanosoma brucei brucei, UniProt P04789); test: TbTIM inactivation; type: biochemical
T1 construct: made in house; host or cells: Escherichia coli
Protocol: (§1) Table S3. Activity of compound 796 in Triosephosphate isomerase from L. mexicana (LmTIM) […]
(§2) Expression and purification of proteins: TbTIM, LmTIM were expressed in Escherichia coli and purified as described in the literature. After purification, the enzyme, disolved in 100 mM triethanolamine, 10 mM EDTA and 1 mM dithiothreitol (pH 8), was precipitated with ammonium sulfate (75% saturation) and stored at 4 _C. Before use, extensive dialysis against 100 mM triethanolamine/10 mM EDTA (pH 7.4) was performed. Protein concentration was determined by absorbance at 280 nm (ε= 36,440 M-1cm-1) TbTIM and LmTIM. Enzymatic activity assays: Enzymatic activity was determined following the conversion of glyceraldehyde 3‐phosphate into dihydroxyacetone phosphate. The decrease in absorbance at 340 nm was followed in a multi‐cell Cary spectrophotometer at 25 °C. The reaction mixture (1 mL, pH 7.4) contained 100 mM triethanolamine, 10 mM EDTA, 0.2 mM NADH, 1 mM glyceraldehyde 3‐phosphate and 0.9 units of _‐glycerol phosphate dehydrogenase. The reaction was initiated by the addition of 5 ng/mL of the TbTIM. For the inhibition studies, TcTIM, LmTIM and TbTIM were incubated at a concentration of 5 mg/mL in a buffer containing 100 mM triethanolamine, 10 mM EDTA, pH 7.4 and 10% of DMSO at 36 _C. The mixture also contained the compounds at the indicated concentrations. Compounds were dissolved in DMSO. […]

[14] = Liver fraction stability (cytosolic and microsomal fraction of rat hepatocytes, TLC); type: in vitro ADME; conditions: rat hepatocyte cytosolic and microsomal fractions, 37 °C
Protocol: For the determination of the stability in the different fractions, (cytosolic and microsomal of rat hepatocytes) the different proteins present in them were used. The fractions were prepared according to the previously reported protocol. […] The final concentration of the molecules in the aqueous medium was 400 µM and prepared from a stock in DMSO of 40 mM. The solutions were homogenized and incubated at 37 °C at 10 min, 30 min, 1 h, 2 h, 3 h and 4 h. (by TLC). For this, it was incubated at 37 °C in a volume of 1 mL: 2.5 µL of 30 mM Magnesium Chloride (MgCl); 2.5 µL of 40 mM Nicotinamide Adenosine Dinucleotide Phosphate (NADP+); 5 µL of 350 mM Glucose 6- Phosphate (Glu6P); 5 µL of Glucose 6- phosphate dehydrogenase (Glu6PD) 50 U/mL, 5 µL of the stock of 40 mM compounds and the volume of the Phosphate Buffer (pH = 7) must be such that cytosolic (CF) and microsomal (MF) fraction FC and FM present a final protein concentration of 0.1 mg/mL. After that, the stability of compounds 796 and 1019 in the cytosolic (FCF) and microsomal (FMF) fraction of rat hepatocytes was evaluated at different times (1–4 h). Thin-layer chromatography of ethyl acetate extracts was conducted to evaluate the presence of decomposition products. The mobile phase used for these TLCs was n-hexane: ethyl acetate (7: 3).

in vivo = conditions: male, B6D2F1, mouse, po, 2000 mg/kg
[15] = target: T2, Triosephosphate isomerase from L. mexicana (LmTIM) (Leishmania mexicana, UniProt P48499); test: LmTIM inactivation; type: biochemical
T2 construct: made in house; host or cells: Escherichia coli
Protocol: as §1, §2

[16] = target: triosephosphate isomerase; conditions: mechanism of action; ref [13],[14],[15]; cited from earlier work
[17] = Table 4, curcuminoids, ref [14], read-out: EC50 ± SD T. cruzi
[18] = epimastigotes, multiple strains, ref [13],[14],[15], read-out: EC50 in vitro anti-T. cruzi, epimastigotes
[19] = Table 4, curcuminoids, ref [14]

T2 sequence (P48499 whole entry): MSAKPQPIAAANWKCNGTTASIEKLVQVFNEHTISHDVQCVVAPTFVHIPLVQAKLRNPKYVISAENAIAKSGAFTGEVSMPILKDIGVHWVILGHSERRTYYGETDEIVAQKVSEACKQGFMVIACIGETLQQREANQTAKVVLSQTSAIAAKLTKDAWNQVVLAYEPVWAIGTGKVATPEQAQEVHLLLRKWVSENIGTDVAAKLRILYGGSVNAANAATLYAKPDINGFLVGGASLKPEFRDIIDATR
T1 sequence (P04789 whole entry): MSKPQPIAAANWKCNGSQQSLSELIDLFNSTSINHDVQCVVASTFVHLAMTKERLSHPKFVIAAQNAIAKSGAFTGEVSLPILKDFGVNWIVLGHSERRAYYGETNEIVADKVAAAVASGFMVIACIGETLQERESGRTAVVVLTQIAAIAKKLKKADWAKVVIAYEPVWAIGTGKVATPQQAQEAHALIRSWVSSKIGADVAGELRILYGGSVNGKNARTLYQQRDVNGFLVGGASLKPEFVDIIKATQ

## C=CCn1c(C(=O)N2CCN(C/C=C/c3ccccc3)CC2)cs\c1=N/N=C/C=C/c1ccco1 [Compound 314]
L. infantum amastigote
  inhibition at 10 µM: 85%
[1]; previous works, ref [13],[16]
  micronucleus test, genotoxicity: not genotoxic
[1]; ref [13],[14],[15]
  Micronucleus test in mice (Genotoxicity): No
Fibroblasts (NCTC929)
  EC50: 346 ± 9 µM
T. brucei; Table 3, thiazolidene hydrazines
  EC50: 5 ± 1 µM
T. cruzi [2]; Table 3, thiazolidene hydrazines, ref [13],[16],[19],[23],[25], read-out: EC50 ± SD T. cruzi
  EC50: 3.1 ± 0.2 µM
T. cruzi [2]; amastigotes, multiple strains, ref [13],[14],[15], read-out: EC50 in vitro anti-T. cruzi, amastigotes
  EC50: 0.72 µM
[3]
  Stability in vitro (microsomal, plasma, other solutions): High
[4]
  EC50: 30 ± 5 µM
L. amazonensis [5]; half the dose of 796
  leishmanicidal activity in vivo: low
[6]; previous works, ref [13],[16]
  AMES test, mutagenic capacity: negative
[6]
  Ames Test (mutagenicity): No
Human red blood cells
  cytotoxicity in human red blood cells: did not see any inhibition
[7]
  Selectivity Index MΦ/Lin–Vet: 12
  EC50: 2.5 ± 1 µM
[8]
  Selectivity Index MΦ/Lin–Ref: 23
  EC50: 1.3 ± 0.5 µM
T. cruzi [9]; oral, same dose as in the Leishmaniasis in vivo assay
  reduction of parasitemia: more than 60%
T. cruzi [9]; mean 60% survival in untreated group
  survival: 100%
[10]; previously evaluated, ref [13],[16]
  acute toxicity LD50: > 2000 mg/kg of weight
[10]; ref [13],[14],[15]
  Acute oral toxicity LD50: ^d LD50 > 2000 mg/kg in mice
L. amazonensis [11]
  Selectivity Index MΦ/L. amaz: 3
  EC50: 12 ± 5 µM
Cruzipain
  IC50: 4.3 µM
Human macrophages
  cytotoxicity in human macrophages: did not see any inhibition
[12]
  survival in the acute toxicity model in vivo: 100%
L. braziliensis; Table 3, thiazolidene hydrazines, ref [13],[16],[19],[23],[25]
  EC50: 4 ± 1 µM

## O=C(/C=C/c1cccs1)/C=C/c1cccs1 [Compound 796]
L. infantum amastigote
  inhibition at 10 µM: 90%
Fibroblasts (NCTC929)
  EC50: 158 ± 5 µM
T. brucei; Table 4, curcuminoids
  EC50: 0.6 ± 0.1 µM
[13]
  inhibition at 50 µM: 61%
T. cruzi [2]; [17]
  EC50: 5 ± 0.8 µM
T. cruzi [2]; [18]
  EC50: 5 µM
[3]
  Stability in vitro (microsomal, plasma, other solutions): moderate
[4]
  EC50: 38 ± 7 µM
L. amazonensis [5]; parasite load in lesion, 796 at 203 µmol/kg, other molecules at half that dose
  % of suppression of the parasites: more than 50%
L. amazonensis [5]; when treatment begins (Figure 2C)
  diameter of the paw: begins to decrease
[14]
  metabolic stability: time compound detected / degraded: ≥ 4 h
In vivo
  LD50 at 14 days: > 2000 mg/kg
Human red blood cells
  cytotoxicity in human red blood cells: did not see any inhibition
[7]
  Selectivity Index MΦ/Lin–Vet: 4
  EC50: 10 ± 2 µM
male, CD-1, mouse, in vivo, 150 mg/kg
  Media Mn/Mouse ± SD: 5 ± 1
mice, 796 150 mg/kg oral, Cyclophosphamide intraperitoneal positive control, 5000 EPC observed
  Number EPMn (total polychromatic micronucleated erythrocytes in the 5 assays): 21
[8]
  Selectivity Index MΦ/Lin–Ref: 10
  EC50: 4 ± 0.5 µM
L. amazonensis [11]
  Selectivity Index MΦ/L. amaz: 5
  EC50: 8 ± 2 µM
Human macrophages
  cytotoxicity in human macrophages: did not see any inhibition
[12]
  survival in the acute toxicity model in vivo: 100%
L. braziliensis; [19]
  EC50: 4 ± 0.5 µM
[15]
  inhibition at 50 µM: 42.5%

## O=C1/C(=C/C=C/c2ccco2)CCC/C1=C\C=C\c1ccco1 [Compound 1019]
T. brucei
  trypanosomicidal effect on T. brucei: no trypanosomicidal effect
T. cruzi [2]; [17]
  EC50: 0.6 ± 0.2 µM
T. cruzi [2]; [18]
  EC50: 0.6 µM
[3]
  Stability in vitro (microsomal, plasma, other solutions): low
[6]
  Ames Test (mutagenicity): no
[7]
  growth inhibitory / trypanosomicidal effect on the L. infantum canine-derived isolate: no trypanosomicidal effect
[8]
  EC50: < 0.3 µM
[16]
  IC50: 0.086 µM
L. amazonensis [11]
  EC50: 7 ± 1 µM
L. braziliensis; [19]
  EC50: 13 ± 7 µM
